Results published in patent US8728978B2, “Biocide compositions (IV)” (Cognis IP Management GmbH, priority 2009, dated 2014).

Test: Solubility of biocides in different solvents at 25° C.
Assay type: physicochemical
Protocol: Solubility of two fungicides, one herbicide and one insecticide in different solvents at 25° C. was tested.

[1] = solvent: C8-C10 fatty acid dimethylamide (Ex. C3)
[2] = solvent: Lactic acid dimethyl amide (Ex. C4)
[3] = solvent: Levulinic acid tetrahydrofurfuryl ester (Ex. 7)

| Structure (SMILES) | Solubility of biocides [1] | Solubility of biocides [2] | Solubility of biocides [3] |
| --- | --- | --- | --- |
| O=C(NC(=O)c1c(F)cccc1F)Nc1ccc(OC(F)(F)C(F)OC(F)(F)F)c(Cl)c1 (stereo not drawn) [Novaluron] | 32 % b.w. | 22 % b.w. | 24 % b.w. |
| CCOc1cc(Oc2ccc(C(F)(F)F)cc2Cl)ccc1[N+](=O)[O-] [Oxyfluorfen] | 31 % b.w. | 23 % b.w. | 33 % b.w. |
